Measurements taken from ChEMBL document CHEMBL4196012 (Eur J Med Chem, 2018).
Values after ≈ are worked out from the molar mass of the structure shown.

Key:
Escherichia coli [1] = assay: In vivo antibacterial activity against Escherichia coli NCTC 10419 infected in po dosed mouse administered at 1 and 4 hrs post infection; type: functional, organism-based
Staphylococcus aureus [2] = assay: Potency index, ratio of ciprofloxacin MIC to compound MIC for antibacterial activity against vancomycin-insensitive Staphylococcus aureus; type: functional
[3] = Partition coefficient, log P of the compound; type: physicochemical; details: octanol/water
Enterococcus faecium = assay: Antibacterial activity against vancomycin and quinolone-resistant Enterococcus faecium after 16 to 20 hrs by NCCLS microdilution method; type: functional
Enterococcus faecalis [4] = assay: Antibacterial activity against linezolid-resistant Enterococcus faecalis after 16 to 20 hrs by NCCLS microdilution method; type: functional
Staphylococcus aureus [5] = assay: Antibacterial activity against quinolone-resistant Staphylococcus aureus after 16 to 20 hrs by NCCLS microdilution method; type: functional
Escherichia coli [6] = assay: Antibacterial activity against Escherichia coli ATCC 25922 after 16 to 20 hrs by NCCLS microdilution method; type: functional
Streptococcus pneumoniae [7] = assay: Antibacterial activity against Streptococcus pneumoniae ATCC 49619 after 16 to 20 hrs by NCCLS microdilution method; type: functional
Moraxella catarrhalis = assay: Antibacterial activity against Moraxella catarrhalis ATCC 8176 after 16 to 20 hrs by NCCLS microdilution method; type: functional
Streptococcus pneumoniae [8] = assay: Antibacterial activity against quinolone-resistant Streptococcus pneumoniae after 16 to 20 hrs by NCCLS microdilution method; type: functional
Staphylococcus aureus [9] = assay: Antibacterial activity against linezolid-resistant Staphylococcus aureus after 16 to 20 hrs by NCCLS microdilution method; type: functional
Staphylococcus aureus [10] = assay: Antibacterial activity against Staphylococcus aureus ATCC 29213 after 16 to 20 hrs by NCCLS microdilution method; type: functional
Haemophilus influenzae = assay: Antibacterial activity against Haemophilus influenzae 11 after 16 to 20 hrs by NCCLS microdilution method; type: functional
Enterococcus faecalis [11] = assay: Antibacterial activity against Enterococcus faecalis ATCC 29212 after 16 to 20 hrs by NCCLS microdilution method; type: functional
Escherichia coli [12] = assay: Antibacterial activity against Escherichia coli ATCC 35218 after 18 to 24 hrs by double microdilution method; type: functional
[13] = system: Mycolicibacterium smegmatis; assay: Antibacterial activity against Mycobacterium smegmatis ATCC 607 after 48 to 72 hrs by double microdilution method; type: functional
Enterococcus faecalis [14] = assay: Antibacterial activity against Enterococcus faecalis ATCC 29212 after 18 to 24 hrs by double microdilution method; type: functional
[15] = system: Yersinia pseudotuberculosis; assay: Antibacterial activity against Yersinia pseudotuberculosis ATCC 911 after 18 to 24 hrs by double microdilution method; type: functional
Pseudomonas aeruginosa [16] = assay: Antibacterial activity against Pseudomonas aeruginosa ATCC 10145 after 18 to 24 hrs by double microdilution method; type: functional
Bacillus cereus = assay: Antibacterial activity against Bacillus cereus 709 Roma after 18 to 24 hrs by double microdilution method; type: functional
Staphylococcus aureus [17] = assay: Antibacterial activity against Staphylococcus aureus ATCC 25923 after 18 to 24 hrs by double microdilution method; type: functional
Staphylococcus aureus [18] = assay: Antibacterial activity against Staphylococcus aureus NCDC 110 after overnight incubation by single disc method; type: functional
Bacillus subtilis = assay: Antibacterial activity against Bacillus subtilis NCDC 71 after overnight incubation by single disc method; type: functional
Paenibacillus polymyxa = assay: Antibacterial activity against Paenibacillus polymyxa NCDC 64 after overnight incubation by single disc method; type: functional
Escherichia coli [19] = assay: Antibacterial activity against Escherichia coli NCDC 134 after overnight incubation by single disc method; type: functional
Pseudomonas aeruginosa [20] = assay: Antibacterial activity against Pseudomonas aeruginosa NCDC105 after overnight incubation by single disc method; type: functional

Compound `COc1cc(Cc2cnc(/N=C3\C(=O)N(CN4CCN(c5cc6c(cc5F)c(=O)c(C(=O)O)cn6C5CC5)CC4)c4ccc(C)cc43)nc2N)cc(OC)c1OC` has an EC50 (Escherichia coli [1]) of 0.62 mg/kg.
In the case of `CCn1cc(C(=O)O)c(=O)c2cnc(N3CCN(Cc4ccc(CN5CCN(c6cc7c(cc6F)c(=O)c(C(=O)O)cn7C6CC6)CC5)cc4)CC3)nc21`, the Ratio (Staphylococcus aureus [2]) is reported as >4.
Work on `COC(=O)c1cn(C2CC2)c2cc(N3CCNCC3)c(F)cc2c1=O` yielded a logP [3] of -0.441.
Compound `CCCOC(=O)c1cn(C2CC2)c2cc(N3CCNCC3)c(F)cc2c1=O` has a logP [3] of 0.437.
In the case of `CC(=O)NC[C@H]1CN(c2ccc(N3CCN(c4cc5c(cc4F)c(=O)c(C(=O)O)cn5C4CC4)CC3)c(F)c2)C(=O)O1`, the MIC (Enterococcus faecium) is reported as 0.25 to 0.5 µg/mL (≈ 0.43 to 0.86 µM), the MIC (Enterococcus faecalis [4]) is reported as 0.125 to 4 µg/mL (≈ 0.215 to 6.88 µM) and the MIC (Staphylococcus aureus [5]) is reported as 0.25 to 0.5 µg/mL (≈ 0.43 to 0.86 µM). It also gave an MIC (Escherichia coli [6]) of 0.125 to 4 µg/mL (≈ 0.215 to 6.88 µM), an MIC (Streptococcus pneumoniae [7]) of 0.125 to 4 µg/mL (≈ 0.215 to 6.88 µM) and an MIC (Moraxella catarrhalis) of 0.125 to 4 µg/mL (≈ 0.215 to 6.88 µM). It also gave an MIC (Streptococcus pneumoniae [8]) of 0.25 to 0.5 µg/mL (≈ 0.43 to 0.86 µM), an MIC (Staphylococcus aureus [9]) of 0.125 to 4 µg/mL (≈ 0.215 to 6.88 µM) and an MIC (Staphylococcus aureus [10]) of 0.125 to 4 µg/mL (≈ 0.215 to 6.88 µM). The MIC (Haemophilus influenzae) was 0.125 to 4 µg/mL (≈ 0.215 to 6.88 µM) and the MIC (Enterococcus faecalis [11]) was 0.125 to 4 µg/mL (≈ 0.215 to 6.88 µM).
With `CCn1c(CNc2ccc(N3CCN(c4ccc(F)cc4)CC3)c(F)c2)nn(CN2CCN(c3cc4c(cc3F)c(=O)c(C(=O)O)cn4C3CC3)CC2)c1=S` the MIC (Escherichia coli [12]) was < 0.24 µg/mL, the MIC [13] was < 0.24 µg/mL and the MIC (Enterococcus faecalis [14]) was < 0.24 µg/mL. The MIC [15] was < 0.24 µg/mL, the MIC (Pseudomonas aeruginosa [16]) was < 0.24 µg/mL and the MIC (Bacillus cereus) was < 0.24 µg/mL. The MIC (Staphylococcus aureus [17]) was < 0.24 µg/mL.
Compound `O=C(CN1CCN(c2cc3c(cc2F)c(=O)c(C(=O)O)cn3C2CC2)CC1)Nc1nc2ccc([N+](=O)[O-])cc2s1` has an MIC (Staphylococcus aureus [18]) of 3 to 125 µg/mL (≈ 5.3 to 221 µM), an MIC (Bacillus subtilis) of 3 to 125 µg/mL (≈ 5.3 to 221 µM) and an MIC (Paenibacillus polymyxa) of 3 to 125 µg/mL (≈ 5.3 to 221 µM). For the same compound, the MIC (Escherichia coli [19]) was 3 to 125 µg/mL (≈ 5.3 to 221 µM) and the MIC (Pseudomonas aeruginosa [20]) was 3 to 125 µg/mL (≈ 5.3 to 221 µM).
Work on `O=C(CN1CCN(c2cc3c(cc2F)c(=O)c(C(=O)O)cn3C2CC2)CC1)Nc1nc2ccc(Cl)cc2s1` yielded an MIC (Staphylococcus aureus [18]) of 3 to 15 µg/mL (≈ 5.4 to 27 µM), an MIC (Bacillus subtilis) of 3 to 15 µg/mL (≈ 5.4 to 27 µM) and an MIC (Paenibacillus polymyxa) of 3 to 15 µg/mL (≈ 5.4 to 27 µM). For the same compound, the MIC (Escherichia coli [19]) was 3 to 15 µg/mL (≈ 5.4 to 27 µM) and the MIC (Pseudomonas aeruginosa [20]) was 3 to 15 µg/mL (≈ 5.4 to 27 µM).
For `COc1ccccc1N1CCN(Cc2nn(CN3CCN(c4cc5c(cc4F)c(=O)c(C(=O)O)cn5C4CC4)CC3)c(=O)n2Cc2ccccc2)CC1`, the MIC (Escherichia coli [12]) was < 0.24 µg/mL, the MIC [13] was < 0.24 µg/mL and the MIC (Enterococcus faecalis [14]) was < 0.24 µg/mL. The MIC [15] was < 0.24 µg/mL, the MIC (Pseudomonas aeruginosa [16]) was < 0.24 µg/mL and the MIC (Bacillus cereus) was < 0.24 µg/mL. For the same compound, the MIC (Staphylococcus aureus [17]) was < 0.24 µg/mL.
For `COc1ccccc1N1CCN(Cc2nn(CN3CCN(c4cc5c(cc4F)c(=O)c(C(=O)O)cn5C4CC4)CC3)c(=S)n2Cc2ccccc2)CC1`, the MIC (Escherichia coli [12]) was < 0.24 µg/mL, the MIC [13] was < 0.24 µg/mL and the MIC (Enterococcus faecalis [14]) was < 0.24 µg/mL. The MIC [15] was < 0.24 µg/mL, the MIC (Pseudomonas aeruginosa [16]) was < 0.24 µg/mL and the MIC (Bacillus cereus) was < 0.24 µg/mL. The MIC (Staphylococcus aureus [17]) was < 0.24 µg/mL.
For `O=C(O)c1cn(C2CC2)c2cc(N3CCN(Cn4nc(CNc5ccc(N6CCN(c7ccc(F)cc7)CC6)c(F)c5)n(Cc5ccccc5)c4=S)CC3)c(F)cc2c1=O`, the MIC (Escherichia coli [12]) was < 0.24 µg/mL, the MIC [13] was < 0.24 µg/mL and the MIC (Enterococcus faecalis [14]) was < 0.24 µg/mL. For the same compound, the MIC [15] was < 0.24 µg/mL, the MIC (Pseudomonas aeruginosa [16]) was < 0.24 µg/mL and the MIC (Bacillus cereus) was < 0.24 µg/mL. For the same compound, the MIC (Staphylococcus aureus [17]) was < 0.24 µg/mL.
With `O=C(CN1CCN(c2cc3c(cc2F)c(=O)c(C(=O)O)cn3C2CC2)CC1)Nc1nc2c(Cl)ccc(Cl)c2s1` the MIC (Staphylococcus aureus [18]) was 3 to 125 µg/mL (≈ 5.08 to 212 µM), the MIC (Bacillus subtilis) was 3 to 125 µg/mL (≈ 5.08 to 212 µM) and the MIC (Paenibacillus polymyxa) was 3 to 125 µg/mL (≈ 5.08 to 212 µM). It also gave an MIC (Escherichia coli [19]) of 3 to 125 µg/mL (≈ 5.08 to 212 µM) and an MIC (Pseudomonas aeruginosa [20]) of 3 to 125 µg/mL (≈ 5.08 to 212 µM).
